Several values for one entry are separate records, joined by “and”; a condition that tells them apart may be missing. Equal values may be shown once. *1 amine or outer side, *2 acyl side, *3 side chain or, on linkers, in order; H or OH if unused. Where a SMILES comes first, the peptide text is derived from it. Bridges are numbered along the chain shown (N, C = ends). [ ]: non-standard residue; d: D form. ξ: configuration not given here. Phe(4-CH2NHiPr) = CC(C)NCc1ccc(C[C@H](N)C(=O)O)cc1; X2 = CC(C)NCc1ccc(C[C@@H](N[*:1])C(=O)[*:2])cc1; d1Nal = N[C@H](Cc1cccc2ccccc12)C(=O)O; Thr(3ξ) = CC(O)[C@H](N)C(=O)O; ξF = NC(Cc1ccccc1)C(=O)O; ξK = NCCCCC(N)C(=O)O; ξT = CC(O)C(N)C(=O)O; Ahp = NCCCCCCC(=O)O
Assays:
[1] = target: Somatostatin receptor type 3 (Rattus norvegicus, UniProt P30936)
Somatostatin receptor type 3, sequence (P30936 whole entry): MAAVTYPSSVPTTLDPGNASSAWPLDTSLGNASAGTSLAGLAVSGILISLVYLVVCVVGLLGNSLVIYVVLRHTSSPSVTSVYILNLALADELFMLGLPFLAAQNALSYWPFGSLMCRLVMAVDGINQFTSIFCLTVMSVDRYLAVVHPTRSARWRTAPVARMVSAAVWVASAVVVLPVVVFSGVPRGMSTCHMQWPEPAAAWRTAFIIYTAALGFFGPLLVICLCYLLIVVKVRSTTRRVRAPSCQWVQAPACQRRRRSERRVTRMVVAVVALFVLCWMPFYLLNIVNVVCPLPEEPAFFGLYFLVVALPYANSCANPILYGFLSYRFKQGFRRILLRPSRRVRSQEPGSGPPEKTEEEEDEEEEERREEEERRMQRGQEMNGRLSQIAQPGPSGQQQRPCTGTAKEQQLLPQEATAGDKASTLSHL

[2] = target: T1, Somatostatin receptor type 5 (Rattus norvegicus, UniProt P30938)
T1 sequence (P30938 whole entry): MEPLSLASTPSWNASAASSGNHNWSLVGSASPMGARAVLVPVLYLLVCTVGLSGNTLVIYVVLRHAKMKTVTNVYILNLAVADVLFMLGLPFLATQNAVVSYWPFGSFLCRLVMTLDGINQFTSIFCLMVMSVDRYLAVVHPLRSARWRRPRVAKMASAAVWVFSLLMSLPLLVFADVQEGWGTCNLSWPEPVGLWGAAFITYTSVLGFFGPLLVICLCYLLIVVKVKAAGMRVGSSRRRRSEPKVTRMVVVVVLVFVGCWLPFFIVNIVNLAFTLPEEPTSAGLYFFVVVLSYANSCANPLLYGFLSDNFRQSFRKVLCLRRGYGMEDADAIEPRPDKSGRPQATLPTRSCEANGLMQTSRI

[3] = target: Somatostatin receptor type 1 (Homo sapiens, UniProt P30872)
Somatostatin receptor type 1, sequence (P30872 whole entry): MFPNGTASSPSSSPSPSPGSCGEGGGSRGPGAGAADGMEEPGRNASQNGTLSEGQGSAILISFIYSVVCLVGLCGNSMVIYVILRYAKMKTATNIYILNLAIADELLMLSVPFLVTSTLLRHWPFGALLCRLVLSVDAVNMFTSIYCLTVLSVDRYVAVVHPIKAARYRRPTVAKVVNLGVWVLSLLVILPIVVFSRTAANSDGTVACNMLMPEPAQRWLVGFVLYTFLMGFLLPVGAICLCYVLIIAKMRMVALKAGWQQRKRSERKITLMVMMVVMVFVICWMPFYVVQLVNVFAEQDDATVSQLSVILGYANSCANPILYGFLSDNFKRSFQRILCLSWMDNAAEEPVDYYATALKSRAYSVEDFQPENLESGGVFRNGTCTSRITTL

[4] = target: Somatostatin receptor type 2 (Rattus norvegicus, UniProt P30680)
Somatostatin receptor type 2 (Rattus norvegicus, UniProt P30680), sequence (P30680 whole entry): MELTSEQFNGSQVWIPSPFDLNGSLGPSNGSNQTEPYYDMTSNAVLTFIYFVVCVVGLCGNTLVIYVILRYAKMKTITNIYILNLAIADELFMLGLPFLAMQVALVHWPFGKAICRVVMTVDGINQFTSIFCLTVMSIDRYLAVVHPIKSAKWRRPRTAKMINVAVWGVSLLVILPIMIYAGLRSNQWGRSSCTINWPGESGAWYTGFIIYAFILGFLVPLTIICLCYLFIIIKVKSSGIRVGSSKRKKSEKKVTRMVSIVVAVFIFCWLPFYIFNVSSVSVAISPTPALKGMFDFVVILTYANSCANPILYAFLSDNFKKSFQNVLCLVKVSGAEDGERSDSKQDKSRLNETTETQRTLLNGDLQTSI

[5] = target: Somatostatin receptor type 5 (Homo sapiens, UniProt P35346)
Somatostatin receptor type 5 (Homo sapiens, UniProt P35346), sequence (P35346 whole entry): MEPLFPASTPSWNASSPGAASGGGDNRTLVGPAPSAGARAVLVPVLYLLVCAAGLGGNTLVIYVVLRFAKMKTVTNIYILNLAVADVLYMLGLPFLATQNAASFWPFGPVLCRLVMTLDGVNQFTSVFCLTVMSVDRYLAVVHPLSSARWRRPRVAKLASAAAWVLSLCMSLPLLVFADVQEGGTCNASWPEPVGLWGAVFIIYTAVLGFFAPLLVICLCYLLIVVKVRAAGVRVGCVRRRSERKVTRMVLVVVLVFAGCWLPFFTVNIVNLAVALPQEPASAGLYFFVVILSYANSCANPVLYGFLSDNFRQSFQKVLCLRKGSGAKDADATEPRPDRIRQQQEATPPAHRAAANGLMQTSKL

[6] = target: Somatostatin receptor type 2 (Mus musculus, UniProt P30875)
Somatostatin receptor type 2 (Mus musculus, UniProt P30875), sequence (P30875 whole entry): as the sequence (P30680 whole entry) above, with L3M, T4S, F8L, I15V, P16S, G168C, A335T counted along it

[7] = target: Somatostatin receptor type 4 (Homo sapiens, UniProt P31391)
Somatostatin receptor type 4, sequence (P31391 whole entry): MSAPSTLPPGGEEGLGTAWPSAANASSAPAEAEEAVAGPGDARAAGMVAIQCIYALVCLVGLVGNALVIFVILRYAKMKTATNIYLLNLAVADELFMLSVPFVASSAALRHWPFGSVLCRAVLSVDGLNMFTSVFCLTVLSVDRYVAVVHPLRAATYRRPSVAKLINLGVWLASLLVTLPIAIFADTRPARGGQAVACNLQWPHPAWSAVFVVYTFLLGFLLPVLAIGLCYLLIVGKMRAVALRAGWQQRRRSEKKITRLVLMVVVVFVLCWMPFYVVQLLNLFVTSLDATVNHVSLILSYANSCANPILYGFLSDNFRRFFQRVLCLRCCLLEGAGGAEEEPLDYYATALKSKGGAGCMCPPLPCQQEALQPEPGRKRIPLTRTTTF

[8] = target: Somatostatin receptor type 2 (Homo sapiens, UniProt P30874)
Somatostatin receptor type 2 (Homo sapiens, UniProt P30874), sequence (P30874 whole entry): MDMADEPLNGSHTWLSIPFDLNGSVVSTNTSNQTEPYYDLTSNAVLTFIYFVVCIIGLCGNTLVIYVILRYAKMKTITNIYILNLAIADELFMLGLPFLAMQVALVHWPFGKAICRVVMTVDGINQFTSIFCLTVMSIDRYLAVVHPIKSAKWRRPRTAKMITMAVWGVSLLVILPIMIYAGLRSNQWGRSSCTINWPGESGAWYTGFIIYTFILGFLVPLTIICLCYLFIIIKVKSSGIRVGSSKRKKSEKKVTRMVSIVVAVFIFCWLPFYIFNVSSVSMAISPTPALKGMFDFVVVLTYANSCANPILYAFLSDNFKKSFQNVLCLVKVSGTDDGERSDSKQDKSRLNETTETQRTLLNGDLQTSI

| Ki [1] [nM] | Ki [2] [nM] | Ki [3] | Ki [4] [nM] | Ki [5] [nM] | Ki [6] | Ki [7] [nM] | Ki [8] [nM] | Structure (SMILES) |
| --- | --- | --- | --- | --- | --- | --- | --- | --- |
| 4.1 |  | 582 nM | 101 | 2.18 | 1.49 nM and 11 nM |  |  | C[C@@H](O)[C@@H]1NC(=O)[C@H](CCCCN)NC(=O)[C@@H](Cc2c[nH]c3ccccc23)NC(=O)[C@H](Cc2ccccc2)NC(=O)[C@H](Cc2ccccc2)NC(=O)[C@H](N)CSSC[C@H](C(N)=O)NC(=O)[C@H](Cc2ccccc2)NC1=O |
|  | 3.4 |  |  |  |  |  |  | CC(O)[C@H]1NC(=O)[C@H](CCCCN)NC(=O)[C@H](Cc2c[nH]c3ccccc23)NC(=O)[C@H](Cc2ccccc2)NC(=O)[C@@H](Cc2ccccc2)NC(=O)[C@H](N)CSSC[C@H](C(N)=O)NC(=O)[C@H](Cc2ccccc2)NC1=O (some centres not stated) |
|  | 536 |  |  |  |  |  |  | CC(C)[C@H](NC(=O)[C@H](CCCCN)NC(=O)[C@@H](Cc1c[nH]c2ccccc12)NC(=O)[C@H](Cc1ccc(O)cc1)NC(=O)[C@H](Cc1ccccc1)NC(=O)[C@@H](N)Cc1ccccc1)C(=O)N[C@@H](Cc1ccccc1)C(=O)N[C@H](Cc1cccc2ccccc12)C(N)=O [BIM 23056] (H-FFY[dW]KVF[d1Nal]-NH2) |
| 272 |  | 692 nM | 3400 | 12 | 132 nM | 174 |  | CC(C)[C@H](NC(=O)[C@H](CCCCN)NC(=O)[C@@H](Cc1c[nH]c2ccccc12)NC(=O)[C@H](Cc1ccc(O)cc1)NC(=O)[C@H](Cc1ccccc1)NC(=O)[C@H](N)Cc1ccccc1)C(=O)N[C@@H](Cc1ccccc1)C(=O)N[C@H](Cc1cccc2ccccc12)C(N)=O [BIM 23056] (H-[dF]FY[dW]KVF[d1Nal]-NH2) |
| 5.7 | 0.65 | 86.8 nM | 57 | 0.34 |  | 3.36 |  | CC(O)[C@@H](NC(=O)[C@H](CCCCN)NC(=O)[C@@H](Cc1c[nH]c2ccccc12)NC(=O)[C@H](Cc1ccc(O)cc1)NC(=O)C(Cc1ccccc1)NC(=O)C(N)CS)C(=O)NC(Cc1ccccc1)C(=O)NC(CS)C(N)=O (some centres not stated) [BIM 23295] |
| 11.2 | 9.88 | 151 nM | 45 | 0.27 |  | 55.3 |  | CC(O)[C@@H](NC(=O)[C@H](CCCCN)NC(=O)[C@@H](Cc1c[nH]c2ccccc12)NC(=O)[C@H](Cc1ccccc1)NC(=O)C(Cc1ccccc1)NC(=O)C(N)CS)C(=O)NC(Cc1ccccc1)C(=O)NC(CS)C(N)=O (some centres not stated) [BIM 23313] |
|  | 6.8 |  |  |  |  |  |  | CC(C)C1NC(=O)C(CCCCN)NC(=O)C(Cc2c[nH]c3ccccc23)NC(=O)C(Cc2ccc(O)cc2)NC(=O)C(NC(=O)C(N)Cc2ccccc2)CSSCC(C(=O)NC(Cc2c[nH]c3ccccc23)C(N)=O)NC1=O (configuration not stated) [CAS_71306] (H-FCYWKVCW-NH2; disulfide 2-7; configuration not given here) |
| 87 |  | 481 nM | 0.85 |  |  | 351 |  | CC(C)[C@@H]1NC(=O)[C@H](CCCCN)NC(=O)[C@@H](Cc2c[nH]c3ccccc23)NC(=O)[C@H](Cc2ccc(O)cc2)NC(=O)[C@@H](NC(=O)[C@H](N)Cc2ccccc2)CSSC[C@@H](C(=O)N[C@@H](Cc2c[nH]c3ccccc23)C(N)=O)NC1=O [CAS_71306] (H-[dF]CY[dW]KVCW-NH2; disulfide 2-7) |
| 3.5 | 2.4 |  | 69 |  | 11.9 nM and 5.58 nM |  |  | C[C@@H](O)[C@H](NC(=O)[C@H](Cc1ccccc1)NC(=O)[C@@H](NC(=O)[C@H](CCCCN)NC(=O)[C@@H](Cc1c[nH]c2ccccc12)NC(=O)[C@H](Cc1ccccc1)NC(=O)[C@H](Cc1ccccc1)NC(=O)[C@H](N)Cc1ccccc1)[C@@H](C)O)C(N)=O [CAS_133073-82-2] (H-[dF]FF[dW]KTFT-NH2) |
|  | 72 |  |  |  |  |  |  | CC(C)C1NC(=O)C(CCCCN)NC(=O)C(Cc2c[nH]c3ccccc23)NC(=O)C(Cc2ccc(O)cc2)NC(=O)C(C)N(C)C(=O)C(Cc2ccccc2)NC1=O (configuration not stated) [CAS_3086456] |
| 45 |  |  | 0.48 | 15.5 |  |  |  | CC(C)[C@@H]1NC(=O)[C@H](CCCCN)NC(=O)[C@@H](Cc2c[nH]c3ccccc23)NC(=O)[C@H](Cc2ccc(O)cc2)NC(=O)[C@H](C)N(C)C(=O)[C@H](Cc2ccccc2)NC1=O [CAS_3086456] |
|  |  | 1.8 nM and 4.9 nM |  |  | 1000 nM | 874 | 1000 | CC(C)NCc1ccc(C[C@@H]2NC(=O)[C@@H](Cc3c[nH]c4ccccc34)NC(=O)[C@H](Cc3ccccc3)NC(=O)[C@H](Cc3ccccc3)NC(=O)[C@H](CCCCN)NC(=O)[C@@H](N)CSSC[C@@H](C(=O)O)NC(=O)[C@H](CO)NC(=O)[C@H]([C@@H](C)O)NC(=O)[C@H](Cc3ccccc3)NC(=O)[C@H]([C@@H](C)O)NC2=O)cc1 [CH-275] (H-CKFF[dW][Phe(4-CH2NHiPr)]TFTSC-OH; disulfide 1-11) |
|  | 632 |  |  |  |  |  |  | CC(C)NCc1ccc(C[C@H]2NC(=O)[C@H](Cc3c[nH]c4ccccc34)NC(=O)C(Cc3ccccc3)NC(=O)C(Cc3ccccc3)NC(=O)C(CCCCN)NC(=O)[C@H](N)CSSC[C@H](C(=O)O)NC(=O)[C@@H](CO)NC(=O)[C@H](C(C)O)NC(=O)[C@@H](Cc3ccccc3)NC(=O)C(C(C)O)NC2=O)cc1 (some centres not stated) [CH-275] (H-[dC][ξK][ξF][ξF]W[X2][ξT][dF][Thr(3ξ)][dS][dC]-OH; disulfide 1-11) |
| 92 | 14 |  | 0.57 |  |  |  |  | CC[C@@H]1NC(=O)[C@H](CCCCN)NC(=O)[C@@H](Cc2c[nH]c3ccccc23)NC(=O)[C@H](Cc2ccc(O)cc2)NC(=O)[C@@H](NC(=O)[C@H](N)Cc2ccccc2)CSSC[C@@H](C(=O)N[C@H](C(N)=O)[C@@H](C)O)NC1=O [D-Phe-L-Cys(1)-L-Tyr-D-Trp-L-Lys-L-Abu-L-Cys(1)-L-Thr-NH2] |
| 33 | 51 |  | 12 | 0.76 |  | 467 |  | C[C@@H](O)[C@@H]1NC(=O)[C@H](CCCCN)NC(=O)[C@@H](Cc2c[nH]c3ccccc23)NC(=O)[C@H](Cc2c[nH]c3ccccc23)NC(=O)[C@H](Cc2ccccc2)NC(=O)CCCCCCNC(=O)[C@H](Cc2ccccc2)NC1=O [L-362855] (cyclo([Ahp]FW[dW]KTF)) |

| Structure (SMILES) | Ki [1] [nM] | Ki [2] [nM] | Ki [3] | Ki [4] [nM] | Ki [5] [nM] | Ki [6] | Ki [7] [nM] | Ki [8] [nM] |
| --- | --- | --- | --- | --- | --- | --- | --- | --- |
| C[C@@H](O)[C@@H]1NC(=O)[C@H](CCCCN)NC(=O)[C@@H](Cc2c[nH]c3ccccc23)NC(=O)[C@H](Cc2ccccc2)NC(=O)[C@@H](NC(=O)[C@H](N)Cc2ccccc2)CSSC[C@@H](C(=O)N[C@H](CO)[C@@H](C)O)NC1=O | 14 |  |  |  |  |  |  |  |
| CC(O)[C@H](CO)NC(=O)[C@@H]1CSSCC(NC(=O)C(N)Cc2ccccc2)C(=O)N[C@H](Cc2ccccc2)C(=O)N[C@H](Cc2c[nH]c3ccccc23)C(=O)N[C@H](CCCCN)C(=O)N[C@H](C(C)O)C(=O)N1 (some centres not stated) |  | 17 |  |  |  |  |  |  |
| CC(C)[C@@H]1NC(=O)[C@H](CCCCN)NC(=O)[C@@H](Cc2c[nH]c3ccccc23)NC(=O)[C@H](Cc2ccc(O)cc2)NC(=O)[C@@H](NC(=O)[C@H](N)Cc2ccc3ccccc3c2)CSSC[C@@H](C(=O)N[C@H](C(N)=O)[C@@H](C)O)NC1=O [3-(2-Naphtyl)-D-Ala-L-Cys(1)-L-Tyr-D-Trp-L-Lys-L-Val-L-Cys(1)-L-Thr-NH2] | 115 | 23 |  | 1.47 |  |  |  |  |
| CSCC[C@H](NC(=O)[C@H](C)NC(=O)[C@@H]1CCCN1C(=O)[C@H](CC(N)=O)NC(=O)[C@H](CO)NC(=O)[C@H](CC(N)=O)NC(=O)[C@H](C)NC(=O)[C@@H](N)CO)C(=O)N[C@@H](C)C(=O)N1CCC[C@H]1C(=O)N[C@@H](CCCNC(=N)N)C(=O)N[C@@H](CCC(=O)O)C(=O)N[C@@H](CCCNC(=N)N)C(=O)N[C@@H](CCCCN)C(=O)N[C@@H](C)C(=O)NCC(=O)N[C@H]1CSSC[C@@H](C(=O)O)NC(=O)[C@H](CO)NC(=O)[C@H]([C@@H](C)O)NC(=O)[C@H](Cc2ccccc2)NC(=O)[C@H]([C@@H](C)O)NC(=O)[C@H](CCCCN)NC(=O)[C@H](Cc2c[nH]c3ccccc23)NC(=O)[C@H](Cc2ccccc2)NC(=O)[C@H](Cc2ccccc2)NC(=O)[C@H](CC(N)=O)NC(=O)[C@H](CCCCN)NC1=O [L-Ser-L-Ala-L-Asn-L-Ser-L-Asn-L-Pro-L-Ala-L-Met-L-Ala-L-Pro-L-Arg-L-Glu-L-Arg-L-Lys-L-Ala-Gly-L-Cys(1)-L-Lys-L-Asn-L-Phe-L-Phe-L-Trp-L-Lys-L-Thr-L-Phe-L-Thr-L-Ser-L-Cys(1)-OH] | 0.81 |  |  |  |  |  |  |  |
